Reference: BindingDB's records for doi:10.3109/14756366.2011.643303 (Ondokuz Mayis University, 2013)
pKi: −log10 of the molar value.

How the values were obtained:
Test in all cases: Esterase Activity Assay
Conditions in all cases: pH 7.4
Carbonic anhydrase 4 = Carbonic anhydrase 4 (Homo sapiens, UniProt P22748)
Carbonic anhydrase 2 = Carbonic anhydrase 2 (Homo sapiens, UniProt P00918)
Carbonic anhydrase 1 = Carbonic anhydrase 1 (Homo sapiens, UniProt P00915)
Carbonic anhydrase 3 = target: T1, Carbonic anhydrase 3 (Bos taurus, UniProt Q3SZX4)
T1 sequence (Q3SZX4 whole entry): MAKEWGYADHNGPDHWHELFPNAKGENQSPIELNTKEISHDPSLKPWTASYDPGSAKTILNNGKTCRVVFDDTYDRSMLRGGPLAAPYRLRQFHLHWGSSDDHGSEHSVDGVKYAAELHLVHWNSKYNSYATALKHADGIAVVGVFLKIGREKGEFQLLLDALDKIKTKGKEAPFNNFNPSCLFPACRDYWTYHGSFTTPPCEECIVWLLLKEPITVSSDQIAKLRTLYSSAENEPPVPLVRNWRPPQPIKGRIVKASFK

Chain of Carbonic anhydrase 1 (P00915 whole entry): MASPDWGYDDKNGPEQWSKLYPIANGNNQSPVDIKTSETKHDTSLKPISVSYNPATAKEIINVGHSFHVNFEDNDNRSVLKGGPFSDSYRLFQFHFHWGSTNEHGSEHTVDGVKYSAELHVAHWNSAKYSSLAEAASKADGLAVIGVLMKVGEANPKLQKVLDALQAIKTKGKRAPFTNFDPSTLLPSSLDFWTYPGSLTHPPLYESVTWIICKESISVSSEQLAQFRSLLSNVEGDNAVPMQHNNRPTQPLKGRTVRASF
Chain of Carbonic anhydrase 4 (P22748 whole entry): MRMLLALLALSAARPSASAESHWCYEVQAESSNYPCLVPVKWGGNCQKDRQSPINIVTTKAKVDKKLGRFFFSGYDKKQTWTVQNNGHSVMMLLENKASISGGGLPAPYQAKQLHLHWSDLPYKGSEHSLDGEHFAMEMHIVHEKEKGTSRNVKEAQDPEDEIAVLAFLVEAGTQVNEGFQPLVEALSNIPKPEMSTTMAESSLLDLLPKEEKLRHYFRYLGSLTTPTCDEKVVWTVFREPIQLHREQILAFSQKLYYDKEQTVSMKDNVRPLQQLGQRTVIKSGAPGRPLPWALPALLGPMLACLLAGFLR

Structure (SMILES)	pKi (Carbonic anhydrase 4)	pKi (Carbonic anhydrase 2)	pKi (Carbonic anhydrase 1)	pKi (Carbonic anhydrase 3)
O=c1c(O)c(-c2ccc(O)cc2O)oc2cc(O)cc(O)c12 [2-(2,4-dihydroxyphenyl)-3,5,7-trihydroxychromen-4-one]	4.80	5.36	4.89	4.67
Oc1ccccc1O [1,2-Dihydroxybenzene, XI]	–	4.94	–	5.19
Oc1cc(O)c2c(c1)O[C@H](c1ccc(O)c(O)c1)[C@@H](O)C2 [(+)-Catechin]	5.25	–	5.17	5.66
Oc1cccc(O)c1	3.20	5.03	3.08	3.66
O=c1c(O)c(-c2ccc(O)c(O)c2)oc2cc(O)cc(O)c12 [2-(3,4-dihydroxyphenyl)-3,5,7-trihydroxy-chromone;hydrate]	4.86	5.62	5.44	5.04
O=c1cc(-c2ccc(O)cc2)oc2cc(O)cc(O)c12 [Naringenin, 18]	5.04	5.57	5.39	4.94
Oc1ccccc1	4.84	5.13	4.76	5.34
O=c1cc(-c2ccc(O)c(O)c2)oc2cc(O)cc(O)c12 [2-(3,4-dihydroxyphenyl)-5,7-dihydroxy-4H-chromen-4-one]	5.36	6.13	5.66	5.27
